These results are taken from ChEMBL document CHEMBL5584321, “Chemoenzymatic Synthesis of DNP-Functionalized FGFR1-Binding Peptides as Novel Peptidomimetic Immunotherapeutics for Treating Lung Cancer” (J Med Chem, 2024).

Series [1] can be described thus: Cmax in immunized Sprague-Dawley rat at 1.5 mg/kg,SC administration measured upto 24 hrs by fluorescence based microplate reader assay. The format is ADME, organism-based. The following applies: in vivo.
Series [2] has as its system L6. The series is described as follows: Induction of apoptosis in FGF2-induced rat L6 cells stably expressing human full-length FGFR1c assessed as upregulation of cleaved caspase-3 expression incubated for 24 hrs by Western blotting analysis. The format is functional, cell-based.
Series [3] is described as follows: Binding affinity to CM5 sensor chip immobilized human full-length wild type FGFR1c assessed as dissociation constant by SPR analysis.
For series [4], the system named is L6. Description: Antiproliferative activity against FGF2-induced rat L6 cells stably expressing human full-length FGFR1c assessed as inhibition of cell growth incubated for 36 hrs by CCK-8 assay. The format is functional, cell-based.
The nature of series [5]: Half life in immunized Sprague-Dawley rat at 1.5 mg/kg,SC administration measured upto 24 hrs by fluorescence based microplate reader assay. The format is ADME, organism-based. The note with it: in vivo.
Series [6] is described as follows: Tmax in immunized Sprague-Dawley rat at 1.5 mg/kg,SC administration measured upto 24 hrs by fluorescence based microplate reader assay. The format is ADME, organism-based. The note with it: in vivo.
In series [7] the test system is L6. Description: Antiproliferative activity against FGF2-induced rat L6 cells stably expressing human full-length FGFR1c assessed as inhibition of cell growth at 100 uM incubated for 36 hrs by CCK-8 assay relative to control. The format is functional.
Series [8] is described as follows: AUC in immunized Sprague-Dawley rat at 1.5 mg/kg,SC administration measured upto 24 hrs by fluorescence based microplate reader assay. The following applies: in vivo. It is filed as ADME, organism-based.
Series [9] concerns NCI-H1581. Description: Antitumor activity against human NCI-H1581 cells xenografted BALB/c mouse model assessed as inhibition of tumor growth at 20 mg/kg,SC administrated once daily for 12 days relative to control. The note with it: NCI-H1581, 288 h, time 12 day. It is filed as functional.
Series [10] concerns L6. Description: Binding affinity to human full-length wild type FGFR1c stably expressed in rat L6 cells assessed as increase in green fluorescence signal at 2 uM by DAPI staining based confocal […] microscopic analysis. It is filed as cell-based.
In series [11] the test system is L6. Description: Binding affinity to FGFR1c in rat L6 cells assessed as increase in green fluorescence signal at 2 uM by DAPI staining based confocal […] microscopic analysis. The format is cell-based.
Series [12] deals with L6. Description: Induction of apoptosis in FGF2-induced rat L6 cells stably expressing human full-length FGFR1c assessed as upregulation of cleaved PARP expression incubated for 24 hrs by Western blotting analysis. It is filed as functional, cell-based.
The test system of series [13] is L6. The series is described as follows: Induction of apoptosis in FGF2-induced rat L6 cells stably expressing human full-length FGFR1c assessed as upregulation of cleaved caspase-3 expression at 50 uM incubated for 24 hrs by Western blotting analysis. It is filed as functional, cell-based.
Series [14] relates to L6. Description: Binding affinity to FGFR1c in rat L6 cells assessed as increase in green fluorescence signal incubated for 1 hr by Alexa-488 staining based confocal fluorescence microscopic analysis. It is filed as cell-based.
The subject of series [15] is NCI-H1581. Description: Induction of cell lysis in human NCI-H1581 cells at 1 uM incubated for 1 hr by complement dependent cytotoxicity based CCK-8 assay relative to control. The format is functional.
In series [16] the test system is L6. The series is described as follows: Induction of cell lysis in rat L6 cells at 1 uM incubated for 1 hr by complement dependent cytotoxicity based CCK-8 assay relative to control. The format is functional.
In series [17] the test system is L6. The series is described as follows: Induction of apoptosis in FGF2-induced rat L6 cells stably expressing human full-length FGFR1c assessed as downregulation of BCL-2 expression at 50 uM incubated for 24 hrs by Western blotting analysis. It is filed as functional, cell-based.
Series [18] has as its system L6. The series is described as follows: Binding affinity to human full-length wild type FGFR1c stably expressed in rat L6 cells assessed as fold change in fluorescence intensity at 10 uM by antibody recruiting based flow cytometry relative to Pep1. It is filed as cell-based.
In series [19] the test system is L6. Description: Binding affinity to human full-length wild type FGFR1c stably expressed in rat L6 cells assessed as fluorescence intensity at 10 uM by antibody recruiting based flow cytometry. It is filed as cell-based.
The test system of series [20] is L6. The series is described as follows: Binding affinity to human full-length wild type FGFR1c stably expressed in rat L6 cells assessed as increase in green fluorescence signal incubated for 1 hr by Alexa-488 staining based confocal fluorescence microscopic analysis. It is filed as cell-based.
Series [21] deals with L6. The series is described as follows: Induction of cell lysis in rat L6 cells stably expressing human full-length FGFR1c at 1 uM incubated for 1 hr by complement dependent cytotoxicity based CCK-8 assay relative to control. The format is functional.
In series [22] the test system is L6. The series is described as follows: Binding affinity to human full-length wild type FGFR1c stably expressed in rat L6 cells assessed as increase in fluorescence signal by antibody recruiting based flow cytometry. It is filed as cell-based.
In series [23] the test system is NCI-H1581. The series is described as follows: Binding affinity to FGFR1c in human NCI-H1581 cells assessed as increase in green fluorescence signal incubated for 1 hr by Alexa-488 staining based confocal fluorescence microscopic analysis. The format is cell-based.
The test system of series [24] is L6. The series is described as follows: Induction of apoptosis in FGF2-induced rat L6 cells stably expressing human full-length FGFR1c assessed as upregulation of cleaved PARP expression at 50 uM incubated for 24 hrs by Western blotting analysis. It is filed as functional, cell-based.
The subject of series [25] is NCI-H1581. The series is described as follows: Binding affinity to FGFR1c in human NCI-H1581 cells assessed as increase in fluorescence signal by antibody recruiting based flow cytometry. The format is cell-based.
Series [26] deals with NCI-H1581. Description: Binding affinity to FGFR1c in human NCI-H1581 cells assessed as fluorescence intensity at 10 uM by antibody recruiting based flow cytometry. The format is cell-based.
In series [27] the test system is NCI-H1581. Description: Binding affinity to FGFR1c in human NCI-H1581 cells assessed as fold change in fluorescence intensity at 10 uM by antibody recruiting based flow cytometry relative to Pep1. It is filed as cell-based.

pKd: −log10 of the molar value. The source made the active and inactive calls. No cut-off for these calls is given here. Where a SMILES comes first, the peptide text is derived from it. The star is where a group is joined. X1 = O=[N+]([O-])c1ccc(OCCOCCOCCOCCOCCOCCN*)c([N+](=O)[O-])c1; FITC = O=C1OC2(c3ccc(O)cc3Oc3cc(O)ccc32)c2ccc(NC(=S)*)cc21; X2 = O=[N+]([O-])c1ccc(OCCOCCOCCN*)c([N+](=O)[O-])c1; X3 = O=[N+]([O-])c1ccc(OCCN*)c([N+](=O)[O-])c1; Ahx = NCCCCCC(=O)O

H-YRSRKYSSWYVALKRLPET-NH2 registered a Cmax in series [1] of 205 ng/mL. In addition, the Activity entry in the series with L6 [2], with L6 [4] and in the series with L6 [12] was “Dose-Dependent Effect” in each case. Also, in [3], the pKd is 5.80. Moreover, the half-life in [5] was 2.12 h. Besides, the Tmax in series [6] is 0.58 h. Moreover, the inhibition at 100 µM with L6 [7] turned out to be 100%. Further, the AUC at 24 h in series [8] was found to be 711 ng·h/mL. In the series with NCI-H1581 [9], the inhibition in vivo at 20 mg/kg turned out to be 44.2%. Besides, the outcome in the series on L6 [10] was Active. The result in the series on L6 [11] was inactive.
Turning to `CC(C)C[C@H](NC(=O)[C@H](C)NC(=O)[C@@H](NC(=O)[C@H](Cc1ccc(O)cc1)NC(=O)[C@H](Cc1c[nH]c2ccccc12)NC(=O)[C@H](CO)NC(=O)[C@H](CO)NC(=O)[C@H](Cc1ccc(O)cc1)NC(=O)[C@H](CCCCN)NC(=O)[C@H](CCCNC(=N)N)NC(=O)[C@H](CO)NC(=O)[C@H](CCCNC(=N)N)NC(=O)[C@@H](N)Cc1ccc(O)cc1)C(C)C)C(=O)N[C@@H](CCCCN)C(=O)N[C@@H](CCCNC(=N)N)C(=O)N[C@@H](CC(C)C)C(=O)N1CCC[C@H]1C(=O)N[C@@H](CCC(=O)O)C(=O)N[C@H](C(=O)NCC(=O)NCC(=O)NCC(=O)NCCOCCOCCOc1ccc([N+](=O)[O-])cc1[N+](=O)[O-])[C@@H](C)O` (H-YRSRKYSSWYVALKRLPETGGG-X2), the outcome in the series on L6 [13], with L6 [17], in the series on L6 [20], in the series with NCI-H1581 [23] and in the series on L6 [24] was Active. Further, the outcome with L6 [14] and with L6 [16] was inactive. The Activity is 31.7% in the series on NCI-H1581 [15]; “Dose-Dependent Effect” with L6 [4]; 25.9% with L6 [21]; “Dose-Dependent Effect” in the series on L6 [22]; “Dose-Dependent Effect” in the series with NCI-H1581 [25]. Also, the pKd in [3] was 5.27. Moreover, the fold change (FC) with L6 [18] is 33.4; in the series on NCI-H1581 [27] it was 3.6. Also, the Flu intensity is 0.3 10^4No_unit in the series with L6 [19] and 0.5 10^3No_unit in the series with NCI-H1581 [26]. In addition, the inhibition at 100 µM in the series on L6 [7] amounted to 100%.
As to `CC(C)C[C@H](NC(=O)[C@H](CO)NC(=O)[C@H](C)NC(=O)[C@H](Cc1c[nH]c2ccccc12)NC(=O)[C@H](CCCCN)NC(=O)[C@H](CCCCN)NC(=O)[C@H](CCCNC(=N)N)NC(=O)[C@@H](NC(=O)[C@H](CO)NC(=O)[C@H](CCCNC(=N)N)NC(=O)[C@H](CCCNC(=N)N)NC(=O)CCCCCNC(=S)Nc1ccc2c(c1)C(=O)OC21c2ccc(O)cc2Oc2cc(O)ccc21)C(C)C)C(=O)N[C@@H](Cc1ccc(O)cc1)C(=O)N[C@@H](Cc1ccc(O)cc1)C(=O)N[C@@H](CO)C(=O)N[C@@H](Cc1ccc(O)cc1)C(N)=O` ({FITC-Ahx}-RRSVRKKWASLYYSY-NH2), the outcome in the series with L6 [10] was inactive.
As for `CC(C)C[C@H](NC(=O)[C@H](C)NC(=O)[C@@H](NC(=O)[C@H](Cc1ccc(O)cc1)NC(=O)[C@H](Cc1c[nH]c2ccccc12)NC(=O)[C@H](CO)NC(=O)[C@H](CO)NC(=O)[C@H](Cc1ccc(O)cc1)NC(=O)[C@H](CCCCN)NC(=O)[C@H](CCCNC(=N)N)NC(=O)[C@H](CO)NC(=O)[C@H](CCCNC(=N)N)NC(=O)[C@@H](N)Cc1ccc(O)cc1)C(C)C)C(=O)N[C@@H](CCCCN)C(=O)N[C@@H](CCCNC(=N)N)C(=O)N[C@@H](CC(C)C)C(=O)N1CCC[C@H]1C(=O)N[C@@H](CCC(=O)O)C(=O)N[C@H](C(=O)NCC(=O)NCC(=O)NCC(=O)NCCOc1ccc([N+](=O)[O-])cc1[N+](=O)[O-])[C@@H](C)O` (H-YRSRKYSSWYVALKRLPETGGG-X3), the result with L6 [13], with L6 [17], in the series with L6 [20], with NCI-H1581 [23] and with L6 [24] was Active. The outcome in the series on L6 [14] and with L6 [16] was inactive. The Activity in the series with NCI-H1581 [15] is 35.8%; in the series with L6 [4] it was “Dose-Dependent Effect”; in the series on L6 [21] it was 29.3%; in the series with L6 [22], “Dose-Dependent Effect”; with NCI-H1581 [25], “Dose-Dependent Effect”. In [3], the pKd is 5.23. The fold change (FC) was found to be 180 with L6 [18] and 22.4 in the series on NCI-H1581 [27]. Further, the Flu intensity was 1.6 10^4No_unit in the series on L6 [19] and 3.5 10^3No_unit in the series on NCI-H1581 [26]. The inhibition at 100 µM in the series with L6 [7] came out at 100%.
As for `CC(C)C[C@H](NC(=O)[C@H](CO)NC(=O)[C@H](C)NC(=O)[C@H](Cc1c[nH]c2ccccc12)NC(=O)[C@H](CCCCN)NC(=O)[C@H](CCCCN)NC(=O)[C@H](CCCNC(=N)N)NC(=O)[C@@H](NC(=O)[C@H](CO)NC(=O)[C@H](CCCNC(=N)N)NC(=O)[C@@H](N)CCCNC(=N)N)C(C)C)C(=O)N[C@@H](Cc1ccc(O)cc1)C(=O)N[C@@H](Cc1ccc(O)cc1)C(=O)N[C@@H](CO)C(=O)N[C@@H](Cc1ccc(O)cc1)C(=O)N[C@@H](CC(C)C)C(=O)N1CCC[C@H]1C(=O)N[C@@H](CCC(=O)O)C(=O)N[C@H](C(=O)NCC(=O)NCC(=O)NCC(=O)NCCOCCOCCOCCOCCOCCOc1ccc([N+](=O)[O-])cc1[N+](=O)[O-])[C@@H](C)O` (H-RRSVRKKWASLYYSYLPETGGG-X1), the result in the series with L6 [20] was inactive.
